Consider 1 molecule from patent US10420764B2, “Pharmaceutical formulation of N-[5-[2-(3,5-dimethoxyphenyl)ethyl]-2H-pyrazol-3-YL]-4-[(3R,5S)-3 ,5-dimethylpiperazin-1-YL] benzamide” (AstraZeneca AB, priority 2012, dated 2019).

SMILES strings stand for the structures. Read-outs that look alike come from different tables or passages of the source.

For orientation: solubility means the concentration that dissolves in the medium under given conditions.

The data set in a line: Solubility of Formula (I) in simulated gastric and fasted simulated intestinal fluid. The format is physicochemical. The text has this: Furthermore, we have observed that the compound of Formula (I) may form a viscous material at low pH, which has the effect of reducing the rate at which the drag dissolves. In order to achieve an acceptable rate and extent of dissolution across the physiological pH range, the earlier clinical formulation was manufactured using conditions designed to give a fine granule which, when compressed into tablet form would disperse rapidly upon administration. While this approach did result in an improvement in dissolution performance, ‘filming’ problems were experienced during manufacture. In addition, it was observed that the use of conventional lubricants such as magnesium stearate and sodium stearyl fumarate led to chemical degradation including impurity formation and/or complexation.

In the case of `COc1cc(CCc2cc(NC(=O)c3ccc(N4C[C@@H](C)N[C@@H](C)C4)cc3)n[nH]2)cc(OC)c1` [Formula (I), N-[5-[2-(3,5-dimethoxyphenyl)ethyl]-2H-pyrazol-3-yl]-4-[(3R,5S)-3,5-dimethylpiperazin-1-yl]benzamide], the solubility by setting is: (fasted simulated intestinal fluid, pH 6.5, fassif, read-out: solubility in fasted simulated intestinal fluid) about 0.25 mg/mL; (simulated gastric fluid, pH 1.2, simulated gastric fluid, read-out: solubility in simulated gastric fluid) about 5 mg/mL.
